Reference: patent US7528175B2, “Method of treating airway diseases with beta-adrenergic inverse agonists” (Inverseon, Inc., priority 2005, dated 2009)
“Also recorded” adds a separate entry of the source. Where two headings read alike, the source gives them in different places.

Assays:
asthmatic mice [1] = assay: Airway resistance (Raw) response to methacholine in murine model of asthma (forced oscillation); assay type: in vivo, Balb/cJ mice; conditions: for airway hyperresponsiveness (Raw): chronic treatment 7 days, 20 mg/kg (metoprolol 3× daily s.c.; timolol in chow)
Procedure: Balb/cJ mice aged 6 weeks (Jackson Animal Laboratory, Bar Harbor, Me.) were housed under specific pathogen-free conditions and fed a chicken ovalbumin-free diet. The Animal Research Ethics Boards of both the University of Houston and the Baylor College of Medicine approved all experiments reported here. […] Mice were sensitized with subcutaneous injection of 25 μg of ovalbumin adsorbed to aluminum hydroxide on protocol days 2, 9, and 16. Subsequently, mice were given 50 μL of saline solution containing 25 μg of ovalbumin intranasally, on a daily basis, from protocol days 23 through 27. A group of ovalbumin-sensitized saline-challenged mice serves as controls for systemic sensitization and respiratory challenges with ovalbumin. Prior to intranasal administrations, mice were sedated with halothane vapor.
To examine the effects of duration of β-adrenergic ligand therapy on the phenotype of the murine model of asthma, the experimental drugs were administered either acutely or chronically to different groups of asthmatic mice.
Asthmatic mice on acute therapy were given a single intravenous bolus infusion of either β-adrenergic drug or normal saline on protocol day 28, 15 minutes before airway responsiveness to methacholine was determined. […] […] […] These concentrations were chosen based on those producing therapeutic effects in mice in previously published studies. The non-asthmatic mice were fed normal chow.
On protocol day 28, mice were anesthetized, tracheotomized, and connected to a computer-controlled small animal ventilator (Flexivent, Scientific Respiratory Equipment, Inc., Montreal, Canada). Airway resistance (Raw) was measured using the forced oscillation technique. The cellular composition of bronchoalveolar lavage fluid (BALF) was also determined.
To induce airway constriction, a solution containing 150 μg/mL of acetyl-α-methylcholine chloride (methacholine) (Sigma Chemical, St. Louis, Mo.) was infused intravenously at constant rates using a syringe infusion pump (Raze Scientific Instruments, Stanford, Conn.). […] Each methacholine dose was administered for 3 to 5 minutes, during which data were sampled at 1-minute intervals and then averaged.
The complex input impedance of the respiratory system was computed and the value of the real part of respiratory system impedance at 19.75 Hz was taken to reflect the magnitude of airway resistance (Raw). To examine the degree of airway responsiveness of each animal, the values for Raw as a function of methacholine doses were plotted. The largest value for Raw achieved in response to methacholine stimulation was referred to as Rawpeak. For mice that achieved a plateau in the methacholine dose-Raw response curve, the ED50 was calculated by linear interpolation using the GraphPad Prism4 (GraphPad Software, Inc.). […] The Bonferroni test was used to examine the statistical differences between experimental groups. The effects of acute drug treatments on baseline respiratory system mechanics were assessed using a two-tailed paired t-test. A value of P<0.05 was considered significant.
For these experiments, salbutamol was used for chronic administration at 0.5 mg/kg/day with a minipump and for acute administration at 0.15 mg/kg by i.v. bolus 15 minutes prior to challenge. Alprenolol was used at a high dose of 7200 ppm in chow or at a low dose of 720 ppm in chow. Carvedilol was used at a high dose of 2400 ppm in chow or at a low dose of 720 ppm in chow.

asthmatic mice [2] = assay: Total number of immune cells in BALF (Example 12); assay type: in vivo; conditions: chronic treatment; compared to NS/NC mice
Procedure: Bronchial alveolar lavage fluid was collected from treated animals and total immune cell number was determined and the total number of eosinophils was also determined. Additionally, the interleukin 10 (IL-10) levels were determined in the mice.

β2-adrenergic receptor [3] = assay type: binding, mice; conditions: 2 days of administration
Procedure: (§1) β2-adrenergic receptor numbers were measured in asthmatic mice as follows. […] Mice were sacrificed and lung membranes were isolated as follows. Frozen lung tissue was homogenized in an ice-cold buffer containing 0.32 M sucrose and 25 mM Tris (pH 7.4) using a polytron (Pro 200, Pro Scientific, Inc.). The homogenate was centrifuged at 1000×g for 10 min at 4° C. The resulting supernatant was centrifuged at 40,000×g for 20 min at 4° C. The pellet was suspended in an ice-cold 25 mM Tris-HCl buffer (pH 7.4) and centrifuged at 40,000×g for 20 min at 4° C. The final pellet was suspended in 200 μL of 25 mM Tris-HCl (pH 7.4); membrane protein concentration was determined by BCA protein assay kit. […] The incubation was done at 37° C. for 2 h and terminated by rapid vacuum filtration through glass fiber filters. The filters were washed three times with 250 μL of cold wash buffer (25 mM Tris-HCl, pH 7.4) and the radioactivity determined in a counter. […] Receptor densities are expressed as femtomoles of sites per milligram of protein. Bmax is determined by nonlinear regression of the saturation binding curves.

β2-adrenergic receptor [4] = biological target: β2-adrenergic receptor (Mus musculus, UniProt P18762); assay type: binding, mice; conditions: for Bmax: 15 Minutes drug treatment; for Bmax / βmax: lung membranes of asthmatic mice, mean±SEM; for βmax: 28 Days drug treatment; for level of the β2-adrenergic receptor: chronic treatment, asthmatic mice
Sequence of β2-adrenergic receptor (Mus musculus, UniProt P18762) (P18762 whole entry): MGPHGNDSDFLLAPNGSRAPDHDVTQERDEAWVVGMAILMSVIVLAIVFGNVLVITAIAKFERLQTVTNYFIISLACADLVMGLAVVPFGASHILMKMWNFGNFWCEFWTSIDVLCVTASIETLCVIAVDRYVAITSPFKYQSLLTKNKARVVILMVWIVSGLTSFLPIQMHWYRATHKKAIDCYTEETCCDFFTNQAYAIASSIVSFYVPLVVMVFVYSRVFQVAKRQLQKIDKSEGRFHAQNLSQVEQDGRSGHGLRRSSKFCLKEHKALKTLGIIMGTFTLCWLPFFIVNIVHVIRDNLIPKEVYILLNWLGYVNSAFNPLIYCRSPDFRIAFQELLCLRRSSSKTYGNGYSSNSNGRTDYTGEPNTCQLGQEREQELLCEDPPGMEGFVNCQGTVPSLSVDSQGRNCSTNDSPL
Procedure: as §1

asthmatic mice [5] = assay: BALF cell number and type (Example 11); assay type: in vivo; conditions: vs nontreated asthmatic mice
Source text: The same mice as described in Example 1 underwent bronchoalveolar lavage (BAL) to determine the total number and type of immune system cells in the lung. BAL Fluid (BALF) was irrigated and collected from the lungs of mice as previously described (Evans K L, Bond R A, Corry […]. Frequency dependence of respiratory system mechanics during induced constriction in a murine model of asthma. J Appl Physiol. 2003 January;94(1):245-52). […] The number of neutrophils was increased in nontreated asthmatic mice compared to mice that served as controls for chronic beta-blocker treatments. In comparison to their notable effects on airway responsiveness, the β-AR ligands tested had very little effect on BALF cellularity. […] FIG. 12 has 3 panels of cell number and type of cells from the bronchoalveolar lavage fluid of asthmatic mice treated acutely or chronically with beta adrenergic ligands. Cells were identified as eosinophils (black bars), macrophages (hatched bars), neutrophils (grey bars), and lymphocytes (white bars) by standard morphologic criteria. At least 200 cells were counted per cytospin preparation, and the absolute number of each cell type was calculated based on the volume of fluid recovered from the lavage. […] Data are expressed as mean ±SEM and are representative of 6-25 animals per group. #P<0.05 compared to NTX, *P<0.05 compared to control (ANOVA).

[6] = cited from earlier work
[7] = tested on: antigen-induced bronchoconstriction; conditions: acute administration; cited from earlier work
β-adrenergic receptor = conditions: U.S. Pat. No. 6,284,800; cited from earlier work
[8] = tested on: tracheas from asthmatic mice; conditions: chronic treatment of asthmatic mice, excised tracheas; cited from earlier work
patients with CHF = conditions: cited from earlier work
[9] = chronic use; cited from earlier work
[10] = asthmatic mice, acute: single intravenous bolus 15 minutes before methacholine
[11] = asthmatic mice, chronic administration for 28 days

CC(C)(C)NCC(O)c1ccc(O)c(CO)c1 (stereo not shown) [salbutamol]
Decreased Raw (asthmatic mice [1]; 15 minutes of administration): yes
Decreased Raw (asthmatic mice [1]; 2 days of administration): no
Decreased Raw (asthmatic mice [1]; 28 days of administration): no
airway responsiveness to methacholine provocation (Raw) (asthmatic mice [1]; [10]): reduced the level of airway responsiveness to methacholine provocation and the level of airway resistance
airway responsiveness to methacholine provocation (Raw) (asthmatic mice [1]; [11]): no protection was observed
total number of immune cells in BALF (asthmatic mice [2]): statistically significant at P<0.05 total higher numbers of immune cells
Increased β2AR density (β2-adrenergic receptor [3]): no
Bmax (β2-adrenergic receptor [4]): 256.5 ± 29.24 femtomoles of sites per milligram of protein
βmax (β2-adrenergic receptor [4]): 97.0 ± 23.02 femtomoles of sites per milligram of protein
Increased β2AR density (β2-adrenergic receptor [4]; 15 minutes of administration): yes
Increased β2AR density (β2-adrenergic receptor [4]; 28 days of administration): no
level of the β2-adrenergic receptor (β2-adrenergic receptor [4]): slight decrease
BALF cellularity (asthmatic mice [5]; acute treatment (15 minutes)): did not alter the cellular composition of BALF
BALF cellularity (asthmatic mice [5]; chronic treatment (28 days)): significant increase in the number of eosinophils
bioavailability of inhaled drug ([6]; 10 patients with cystic fibrosis vs healthy adults): greater than that in healthy adults

CC(C)NC[C@@H](O)COc1cccc2ccccc12 [D-propranolol]
antigen-induced bronchoconstriction and airway hyperresponsiveness [7]: beneficial in inhibiting antigen-induced bronchoconstriction and reducing airway hyperresponsiveness
activity with respect to β-adrenergic receptors (β-adrenergic receptor): inactive

C[C@@H]1C[C@H]2[C@@H]3C[C@H](F)C4=CC(=O)C=C[C@]4(C)[C@@]3(F)[C@@H](O)C[C@]2(C)[C@@]1(O)C(=O)SCF [fluticasone]
first-pass hepatic metabolism of systemically absorbed drug ([6]; in vivo): almost complete

CC(C)(C)NCC(O)c1cc(O)cc(O)c1 (stereo not shown) [terbutaline]
increase in bioavailability from oral component ([6]; from an MDI): 6.7%
absorption through the lung ([6]; healthy smokers vs healthy nonsmokers): absorbed through the lung more rapidly in healthy smokers than in healthy nonsmokers

CC(C)NC[C@H](O)COc1cccc2ccccc12 [L-form of propranolol, propranolol]
specific lung resistance [7]: increased specific lung resistance

C=CCc1ccccc1OCC(O)CNC(C)C (stereo not shown) [alprenolol]
Decreased Raw (asthmatic mice [1]; 15 minutes of administration): yes
Decreased Raw (asthmatic mice [1]; 2 days of administration): no
Decreased Raw (asthmatic mice [1]; 28 days of administration): no
airway responsiveness to methacholine provocation (Raw) (asthmatic mice [1]; [10]): airway responsiveness was diminished
airway responsiveness to methacholine provocation (Raw) (asthmatic mice [1]; [11]): does not reduce airway hyperresponsiveness; also recorded: without any activity; also recorded: provides no benefit upon chronic administration
methacholine doses at which Raw was significantly decreased vs non-treated (P<0.05) (asthmatic mice [1]; asthmatic mice, single intravenous bolus): ≥ 408 µg/kg/min
Increased β2AR density (β2-adrenergic receptor [3]): no
Bmax (β2-adrenergic receptor [4]): 299.5 ± 12.19 femtomoles of sites per milligram of protein
βmax (β2-adrenergic receptor [4]): 179.2 ± 53.05 femtomoles of sites per milligram of protein
Increased β2AR density (β2-adrenergic receptor [4]; 15 minutes of administration): yes
Increased β2AR density (β2-adrenergic receptor [4]; 28 days of administration): no
level of the β2-adrenergic receptor (β2-adrenergic receptor [4]): slight decrease
effectiveness on tracheal contraction in response to methacholine (rank) [8]: The most effective compound
BALF cellularity (asthmatic mice [5]; acute treatment (15 minutes)): significant increase in the number of macrophages
BALF cellularity (asthmatic mice [5]; chronic treatment (28 days)): no changes in BALF cellularity were observed

COCCc1ccc(OCC(O)CNC(C)C)cc1 (stereo not shown) [metoprolol]
airway hyperresponsiveness (Raw) (asthmatic mice [1]): effective in reducing airway hyperresponsiveness
clinical outcome in congestive heart failure (patients with CHF): significant mortality reduction

CC(C)(Cc1c[nH]c2ccccc12)NCC(O)COc1ccccc1C#N (stereo not shown) [Bucindolol, bucindolol]
clinical outcome in congestive heart failure (patients with CHF): failed to demonstrate any benefit over placebo

CC(C)(C)NC[C@H](O)COc1nsnc1N1CCOCC1 [timolol]
airway hyperresponsiveness (Raw) (asthmatic mice [1]): effective in reducing airway hyperresponsiveness

Cc1ccc(OCC(O)C(C)NC(C)C)c2c1CCC2 (stereo not shown) [ICI-118,551]
effectiveness on tracheal contraction in response to methacholine (rank) [8]: then ICI-118,551

OCc1cc(C(O)CNCCCCCCOCCCCc2ccccc2)ccc1O (stereo not shown) [salmeterol]
trial outcome [9]: stopped due to increased death rates
time for majority of a dose to be eliminated in the feces ([6]; in vivo): ≤ 72 h

CCCC1O[C@@H]2C[C@H]3[C@@H]4CCC5=CC(=O)C=C[C@]5(C)[C@H]4[C@@H](O)C[C@]3(C)[C@]2(C(=O)CO)O1 (stereo partly shown) [budesonide]
plasma clearance relative to average clearance of prednisolone ([6]; in vivo): about 10 fold
systemic availability of the swallowed fraction ([6]; in vivo): 10.7±4.3%
plasma clearance of the 2 enantiomers, children with asthma vs healthy adults ([6]; per kilogram of bodyweight, 6 children, 11 adults): about 50%
